From PubChem BioAssay (NCI)
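Interpolation was linear, between the two tested concentrations surrounding the appropriate level; five concentrations were tested over 48 hours in 96-well plates. Here, GI50 denotes the concentration required for 50% inhibition of growth. Definition used: TGI = concentration required for complete inhibition of growth.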

Assays:
Assay in all cases: growth of human tumour cells (NCI), 48 h
T-47D breast = tested on: T-47D breast
A498 renal = tested on: A498 renal
UO-31 renal = tested on: UO-31 renal
HL-60(TB) leukemia = tested on: HL-60(TB) leukemia
OVCAR-3 ovarian = tested on: OVCAR-3 ovarian
M14 melanoma = tested on: M14 melanoma
TK-10 renal = tested on: TK-10 renal
MALME-3M melanoma = tested on: MALME-3M melanoma
K-562 leukemia = tested on: K-562 leukemia
CCRF-CEM leukemia = tested on: CCRF-CEM leukemia
SW-620 colon = tested on: SW-620 colon
SF-268 CNS = tested on: SF-268 CNS
NCI-H23 lung = tested on: NCI-H23 lung
MOLT-4 leukemia = tested on: MOLT-4 leukemia
MCF7 breast = tested on: MCF7 breast
HCC-2998 colon = tested on: HCC-2998 colon
HS 578T breast = tested on: HS 578T breast
NCI-H226 lung = tested on: NCI-H226 lung
CAKI-1 renal = tested on: CAKI-1 renal
DU-145 prostate = tested on: DU-145 prostate
SK-MEL-2 melanoma = tested on: SK-MEL-2 melanoma
RXF 393 renal = tested on: RXF 393 renal
A549 NSCLC = tested on: A549 NSCLC
SN12C renal = tested on: SN12C renal
NCI/ADR-RES ovarian = tested on: NCI/ADR-RES ovarian
NCI-H460 lung = tested on: NCI-H460 lung
HOP-62 NSCLC = tested on: HOP-62 NSCLC
HCT-116 colon = tested on: HCT-116 colon
UACC-62 melanoma = tested on: UACC-62 melanoma
SK-MEL-5 melanoma = tested on: SK-MEL-5 melanoma
HCT-15 colon = tested on: HCT-15 colon
KM12 colon = tested on: KM12 colon
COLO 205 colon = tested on: COLO 205 colon
786-0 renal = tested on: 786-0 renal
RPMI-8226 leukemia = tested on: RPMI-8226 leukemia
OVCAR-8 ovarian = tested on: OVCAR-8 ovarian
HT29 colon = tested on: HT29 colon
SNB-75 CNS = tested on: SNB-75 CNS
MDA-MB-231 breast = tested on: MDA-MB-231 breast
SF-539 CNS = tested on: SF-539 CNS
MDA-MB-435 = tested on: MDA-MB-435
SNB-19 CNS = tested on: SNB-19 CNS
OVCAR-5 ovarian = tested on: OVCAR-5 ovarian
ACHN renal = tested on: ACHN renal
LOX IMVI melanoma = tested on: LOX IMVI melanoma
IGROV1 ovarian = tested on: IGROV1 ovarian
UACC-257 melanoma = tested on: UACC-257 melanoma
NCI-H522 lung = tested on: NCI-H522 lung
SR leukemia = tested on: SR leukemia
U251 CNS = tested on: U251 CNS
SK-OV-3 ovarian = tested on: SK-OV-3 ovarian
OVCAR-4 ovarian = tested on: OVCAR-4 ovarian
BT-549 breast = tested on: BT-549 breast
SK-MEL-28 melanoma = tested on: SK-MEL-28 melanoma
PC-3 prostate = tested on: PC-3 prostate
SF-295 CNS = tested on: SF-295 CNS
HOP-92 NSCLC = tested on: HOP-92 NSCLC

COc1cc(-c2nn(-c3cccc(NC(=O)c4ccccc4)c3)cc2-c2ccncc2)ccc1Cl
GI50 (T-47D breast): 843 nM
TGI (T-47D breast): > 100000 nM
GI50 (A498 renal): 197 nM
TGI (A498 renal): 1350 nM
GI50 (UO-31 renal): 400 nM
GI50 (HL-60(TB) leukemia): 376 nM
GI50 (OVCAR-3 ovarian): 313 nM
TGI (OVCAR-3 ovarian): 13900 nM
GI50 (M14 melanoma): 565 nM
TGI (M14 melanoma): 12800 nM
GI50 (TK-10 renal): 4120 nM
TGI (TK-10 renal): > 83800 nM
GI50 (MALME-3M melanoma): 344 nM
GI50 (K-562 leukemia): 390 nM
TGI (K-562 leukemia): > 100000 nM
GI50 (CCRF-CEM leukemia): 492 nM
TGI (CCRF-CEM leukemia): > 100000 nM
GI50 (SW-620 colon): 451 nM
TGI (SW-620 colon): > 36300 nM
GI50 (SF-268 CNS): 596 nM
TGI (SF-268 CNS): > 54800 nM
GI50 (NCI-H23 lung): 1120 nM
TGI (NCI-H23 lung): > 100000 nM
GI50 (MOLT-4 leukemia): 701 nM
TGI (MOLT-4 leukemia): > 100000 nM
GI50 (MCF7 breast): 344 nM
TGI (MCF7 breast): > 100000 nM
GI50 (HCC-2998 colon): 2130 nM
TGI (HCC-2998 colon): 33600 nM
GI50 (HS 578T breast): 870 nM
TGI (HS 578T breast): > 40900 nM
GI50 (NCI-H226 lung): 3300 nM
TGI (NCI-H226 lung): > 100000 nM
GI50 (CAKI-1 renal): 836 nM
TGI (CAKI-1 renal): > 40500 nM
GI50 (DU-145 prostate): 626 nM
TGI (DU-145 prostate): 27100 nM
GI50 (SK-MEL-2 melanoma): 326 nM
TGI (SK-MEL-2 melanoma): 2100 nM
GI50 (RXF 393 renal): 545 nM
TGI (RXF 393 renal): > 25200 nM
GI50 (A549 NSCLC): 496 nM
TGI (A549 NSCLC): > 60600 nM
GI50 (SN12C renal): 1450 nM
TGI (SN12C renal): > 100000 nM
GI50 (NCI/ADR-RES ovarian): 360 nM
TGI (NCI/ADR-RES ovarian): > 100000 nM
GI50 (NCI-H460 lung): 366 nM
TGI (NCI-H460 lung): > 33200 nM
GI50 (HOP-62 NSCLC): 2490 nM
TGI (HOP-62 NSCLC): > 100000 nM
GI50 (HCT-116 colon): 421 nM
TGI (HCT-116 colon): > 100000 nM
GI50 (UACC-62 melanoma): 568 nM
TGI (UACC-62 melanoma): > 100000 nM
GI50 (SK-MEL-5 melanoma): 259 nM
TGI (SK-MEL-5 melanoma): 945 nM
GI50 (HCT-15 colon): 579 nM
TGI (HCT-15 colon): > 100000 nM
GI50 (KM12 colon): 467 nM
TGI (KM12 colon): 96900 nM
GI50 (COLO 205 colon): 522 nM
TGI (COLO 205 colon): 3230 nM
GI50 (786-0 renal): 1100 nM
TGI (786-0 renal): > 100000 nM
GI50 (RPMI-8226 leukemia): 457 nM
TGI (RPMI-8226 leukemia): > 100000 nM
GI50 (OVCAR-8 ovarian): 995 nM
TGI (OVCAR-8 ovarian): > 100000 nM
GI50 (HT29 colon): 365 nM
TGI (HT29 colon): > 45000 nM
GI50 (SNB-75 CNS): 575 nM
TGI (SNB-75 CNS): > 100000 nM
GI50 (MDA-MB-231 breast): 1060 nM
TGI (MDA-MB-231 breast): > 36900 nM
GI50 (SF-539 CNS): 413 nM
TGI (SF-539 CNS): 2650 nM
GI50 (MDA-MB-435): 184 nM
TGI (MDA-MB-435): 508 nM
GI50 (SNB-19 CNS): 1370 nM
TGI (SNB-19 CNS): > 100000 nM
GI50 (OVCAR-5 ovarian): 12800 nM
TGI (OVCAR-5 ovarian): > 100000 nM
GI50 (ACHN renal): 720 nM
TGI (ACHN renal): > 100000 nM
GI50 (LOX IMVI melanoma): 567 nM
TGI (LOX IMVI melanoma): > 100000 nM
GI50 (IGROV1 ovarian): 572 nM
TGI (IGROV1 ovarian): > 100000 nM
GI50 (UACC-257 melanoma): 630 nM
TGI (UACC-257 melanoma): > 100000 nM
GI50 (NCI-H522 lung): 238 nM
GI50 (SR leukemia): 250 nM
TGI (SR leukemia): > 100000 nM
GI50 (U251 CNS): 592 nM
TGI (U251 CNS): 24400 nM
GI50 (SK-OV-3 ovarian): 1190 nM
TGI (SK-OV-3 ovarian): > 100000 nM
GI50 (OVCAR-4 ovarian): 1110 nM
TGI (OVCAR-4 ovarian): > 100000 nM
GI50 (BT-549 breast): 980 nM
TGI (BT-549 breast): > 100000 nM
GI50 (SK-MEL-28 melanoma): 3260 nM
TGI (SK-MEL-28 melanoma): > 100000 nM
GI50 (PC-3 prostate): 333 nM
TGI (PC-3 prostate): > 33500 nM
GI50 (SF-295 CNS): 315 nM
TGI (SF-295 CNS): 1440 nM
GI50 (HOP-92 NSCLC): 269 nM
TGI (HOP-92 NSCLC): 2060 nM
